The text below walks through data of patent US10874683B2, “N4-hydroxycytidine and derivatives and anti-viral uses related thereto” (Emory University, priority 2016, dated 2020).

The conditions of series [1]: rat, in vivo, po, 50 mg/kg.
A short description of series [2]: Rodent pharmacokinetic experiment in DBA-1J mice. In kind it is in vivo. Conditions: for concentration at 24 h: oral, read-out: 24 hr plasma levels. How it is done: DBA-1J mice (6-8 weeks old, female) were acclimated for ≥2 days after receipt. Mice were weighed the day before dosing to calculate dosing volumes. Mice were dosed by oral gavage with drug at 30 mg/kg, 100 mg/kg & 300 mg/kg. The mice were sampled at […] time points: 0.5, 1, 2, 3, 4, 8 and 24 hrs (3 mice per time point for test drug). The mice were euthanized and their organs were collected (see below). In order to collected blood, mice with euthanized by CO2 at the appropriate time point listed above. Blood was obtained by cardiac puncture (0.3 ml) at each time point. Following blood collection, the organs were removed from the mice (see below). The blood was processed by inverting Li-Heparin tube with blood gently 2 or 3 times to mix well. The tubes were then placed in a rack in ice water until able to centrifuge (≤1 hour). As soon as practical, the blood was centrifuged at ˜2000×g for 10 min in a refrigerated centrifuge to obtain plasma. Then, using a 200 μL pipette, the plasma was transferred to a labeled 1.5 ml Eppendorf tube in ice water. The plasma was then frozen in freezer or on dry ice. The samples were stored at −80° C. prior to analysis. Organs were collected from euthanized mice. The organs (lungs, liver, kidney, spleen and heart) were removed, placed in a tube, and immediately frozen in liquid nitrogen. The tubes were then transferred to dry ice. The samples were saved in cryogenic tissue vials. Samples were analyzed by LC-MS/MS using an ABSCIEX 5500 QTRAP LC-MS/MS system with a Hypercarb (PGC) column.

The subject of the next series is pestivirus, hepacivirus. The following applies: Stuyver et al., Antimicrob Agents Chemother 2003; cited from earlier work.
Series [3] in a line: Rodent pharmacokinetic experiment in DBA-1J mice. The following applies: female, mouse, plasma, after IV dosing, read-out: plasma T1/2 (converted). In kind it is in vivo.
The nature of a further series: in vivo. Conditions: male, SD, rat, po, 50 mg/kg.
For the next series, the system named is CHIK virus. Put plainly: organism not typed. In kind it is cell-based. Conditions: Vero.
For a further series, the system named is EEE virus. Put plainly: organism not typed. In kind it is cell-based. The following applies: Vero.
The test system of the next series is Huh7 (liver) cells. Put plainly: Cytotoxicity profile, Huh7 (liver) cells. The following applies: Huh7 (liver) cells (high of range). The series is classed as cell-based.
Another series has as its system Ross River virus. Put plainly: Vero cell cytopathic effect (CPE) model, Ross River virus. The series is classed as cell-based.
A further series has as its system WEE virus. The series can be described thus: organism not typed. In kind it is cell-based. The following applies: Vero.
Series [4] is described as follows: Toxicology after 6 day q.d. intraperitoneal injections in mice. In kind it is in vivo. The text has this: Alternatively, drug delivery by aerosol (nasal spray) administration may immediately achieve therapeutic levels of drug in the nasal mucosa and the brain.
For the next series, the system named is VEE virus. Put plainly: organism not typed. In kind it is cell-based. The following applies: Vero.
Another series has as its system CEM cells. The series can be described thus: Cytotoxicity profile, CEM cells. The series is classed as cell-based. The following applies: CEM cells (low of range).
The subject of another series is ZIKV. The series can be described thus: ZIKV antiviral assay. The series is classed as cell-based. Conditions: Zika virus, read-out: ZIKV (EC50 μM).
The nature of series [5]: Cytotoxicity in Vero cells (ZIKV table). The following applies: African green monkey.

Molecules are shown by their SMILES. Read-outs that look alike come from different tables or passages of the source.

In general, Cmax refers to the highest concentration seen after dosing. Broadly, the Tmax is the time from dosing to the highest level. By bioavailability is commonly meant the share of a dose that reaches the circulation, judged against a reference dose that is usually intravenous. In general, EC50 refers to the concentration that produces a half-maximal response. Consider `O=c1nc(NO)ccn1[C@@H]1O[C@H](CO)[C@H](O)C1O` (stereo in doubt) [EIDD-01931, 1-(3,4-dihydroxy-5-(hydroxymethyl)tetrahydrofuran-2-yl)-4-(hydroxyamino)pyrimidin-2-one], for which the tissue distribution entry in series [1] is on record as “well distributed into all tissues tested”. The “Bioavailability (versus I.P. delivery)” value in series [2] (30 mg/kg PO dosing) is 65%; in series [2] (100 and 300 mg/kg PO dosing), 39-46%. The Cmax came to 3 ng/mL in series [2] (female, DBA-1J, mouse, plasma, PO dosing 30 mg/kg); 7.7 ng/mL in series [2] (female, DBA-1J, mouse, plasma, PO dosing 100 mg/kg); 11.7 ng/mL in [2] (female, DBA-1J, mouse, plasma, PO dosing 300 mg/kg). The half-life in series [2] (female, DBA-1J, mouse, plasma, after PO dosing, read-out: plasma T1/2) was 4.1 to 4.7 h; in series [3] it was 2.2 h. For the same compound, the Tmax in [2] (female, DBA-1J, mouse, plasma, after oral dosing) was in the range of 0.25 to 0.5 h. Besides, the concentration at 24 h in series [2] (female, DBA-1J, mouse, plasma, after 100 mg/kg dose) was about 100 nM; in [2] (female, DBA-1J, mouse, plasma, after 300 mg/kg P.O. dose) it was about 400 nM. Also, the antiviral activity result in the series with pestivirus, hepacivirus was “antipestivirus and antihepacivirus activities”. The bioavailability in “in vivo” came out at 28%. The EC50 with CHIK virus was determined as 1.28 µM; in the series with EEE virus, 1.08 µM; with Ross River virus it was 2.45 µM; in the series with WEE virus, 1.36 µM; in the series on VEE virus, 1 µM. Moreover, the figures for the selectivity index in the series with Huh7 (liver) cells and in the series with CEM cells were 232 and 8, respectively. Besides, the “body weight effect at highest dose tested” value in [4] (100 mg/kg, 6 day q.d. IP, reversed on cessation of dosing) is on record as “weight loss was observed”. Also, the “NOEL (NO Effect Level)” value in series [4] (6 day q.d. intraperitoneal (IP) injections) turned out to be 33 mg/kg.

In general, CC50 refers to the concentration at which the toxic effect on the cells reaches its halfway point. For `O=c1nc(NO)ccn1[C@@H]1O[C@H](CO)[C@H](O)C1O` (stereo partly drawn) [drawing 106], the EC50 in the series with ZIKV was 4.02 µM. For the same compound, the CC50 in [5] was found to be 50.4 µM.
